In patent US20180258180A1, “COMBINATION THERAPY INVOLVING ANTIBODIES AGAINST CLAUDIN 18.2 FOR TREATMENT OF CANCER” (Ganymed Pharmaceuticals AG, priority 2012, published 2018):

Legend:
CLDN18.2 = CLDN18.2 (Homo sapiens, UniProt P56856); test: IMAB362 binding to first extracellular domain of CLDN18.2
[1] = Phase I clinical study, single intravenous administration; format: in vivo, human
Text: IMAB362 is in early clinical testing. A phase I clinical study has been conducted in human. […] In an ongoing phase IIa clinical study IMAB362 is given repetitively.

[2] = system: NUGC-4 cells expressing CLDN18.2; test: IMAB362 ADCC with ZA/IL-2 cultivated PBMCs on NUGC-4 cells (luciferase); format: cell-based, human; settings: PBMCs cultivated 14 days with ZA/IL-2, NUGC-4 targets
Protocol: Specific killing was determined in luciferase assays; cf. FIG. 14a. […] NUGC-4 served as target cells.

[3] = system: HEK293~CLDN18.2 tumor xenografts; test: Treatment of advanced HEK293~CLDN18.2 tumor xenografts; format: in vivo, nude mice
Text: Moreover, advanced tumor treatment experiments were initiated up to 9 days after tumor cell inoculation when tumors had reached volumes of about 60-120 mm^3.
Treatment of 9 to 10 mice per group was initiated when mean tumor volumes reached 88 mm^3 (62-126 mm^3). […] All mice in the groups treated with either PBS or isotype control died within 50-100 days. […] Three of these mice survived the entire observation period (FIG. 20). Importantly, antitumoral efficacy in vivo depends on the presence of the target on the tumor cells.

[4] = system: NUGC-4 gastric cancer cells; test: NUGC-4 gastric tumor xenograft model; format: in vivo, athymic nude mice
Text: NUGC-4 cells grow aggressively in nude mice.
Tumor sizes were monitored twice weekly.
When 1×10^7 tumor cells are inoculated in mice, the median survival time of untreated mice is not longer than 25 days. […] Mice were stratified size-dependently into treatment groups (FIG. 21).

NUGC-4 xenografts = test: Biodistribution of Dyelight 680-labeled antibodies in NUGC-4 xenografted nude mice; settings: live imaging

Substance: IMAB362: chimeric IgG1 antibody directed against CLDN18.2, developed by Ganymed Pharmaceuticals AG
- recognition of the first extracellular domain (ECD1) of CLDN18.2 (CLDN18.2): high affinity and specificity
- measured tumor markers ([1]; in one patient, within 4 weeks after treatment): decreased significantly
- tolerability in patients ([1]; single i.v. administration, 33-1000 mg/m^2, observed for 28 days): very well tolerated
- IMAB362-dependent ADCC activity [2]: Strong
- median survival time ([3]; 200 μg twice per week for 6 weeks, start at mean tumor volume 88 mm^3, versus 25 days): 47 days
- mice surviving the entire observation period ([3]; 9 to 10 mice per group): Three
- survival ([3]; advanced tumors): survival benefit
- tumor growth compared to controls ([4]; 200 μg twice weekly, starting 6 days after inoculation, p<0.05): significant inhibited
- median survival time ([4]; non-significantly increased, versus 25 days): 31 days
- tumor volumes at day 21 after tumor inoculation compared to control mice ([4]; p<0.05): significant smaller
- tumor growth rate ([4]; treatment initiated at mean tumor size about 109 mm^3): significantly reduce tumor growth rate
- retention of labeled antibody signal 120 hours after injection (NUGC-4 xenografts): detectable in comparable intensity
